Tests used:
[1] = system: Tel-KDR (KDR K790-V1356 fused to the C-terminus of Tel); assay: MTS viability assay, Ba/F3 expressing Tel-KDR; format: cell-based; conditions: 72 h, Ba/F3 cells, mean of at least 3 biological replicates
Experimental: Tel-KDR myc was cloned into pBCS2004, a retroviral vector, wherein KDR (K790-V1356) is fused to the C-terminus of Tel. Retroviral particles were generated in HEK293T cells. The Tel-KDR plasmid was co-transfected with helper viruses (gag-Pol and VSV-G) into HEK293T cells using calcium phosphate and the virus was harvested 72 h after transfection.
(§1) Exponentially grown Ba/F3 cells (1.5×10^6 cells in 2 ml medium) were infected with 2 ml of viral suspension in a 6-well plate in the presence of mIL-3 (10 ng/ml) and polybrene (4 μg/ml) (Sigma Aldrich, St. Louis, Mo.) and incubated for 24 h. After 24 h, the cells were centrifuged and the viral supernatant was discarded. The cells were then re-suspended in fresh medium and allowed to recover for another day. The following day, the cells were seeded in complete medium without murine IL-3. After a week or two, when cells started proliferating, a selection was carried out by gradually increasing the puromycin concentration to 0.5 ug/ml. Once the cells were growing exponentially in puromycin, batches of cells were frozen down for banking.
(§2) The impact of KIT inhibitors on the viability of Ba/F3 expressing KIT mutations was determined using an MTS assay, which is a colorimetric sensitive quantification of viable cells in proliferation and cytotoxicity assay. In the MTS assay […] in the presence of phenazine methosulfate (PMS) was used. The mitochondrial reductase forms a formazan which absorbs at 490 nm. Cells in exponential growth phase were added to 384-well plates containing pre-dispensed compounds (top concentration 10 uM, 10-point curve). The cells were incubated for 72 h at 37° C. and 5% CO2. After 72 h, MTS reagent was added to the plates and incubated an additional 2 h at 37° C. before measuring the absorbance at 490 nm on a Tecan microplate reader using Magellan Software (Tecan Trading AG, Switzerland).
(§3) The absorbances were normalized as follows: (Read-Day0 control)/(Day3 control-Day0 control)*100. The GI50 values were generated using Genedata Screener software (Genedata; Lexington, Mass.). A non-linear regression with constraints for top and bottom between 100 and −100 and no constraint on the Hill coefficient was used to generate GI50 values. The GI50 values reported below are the calculated mean result of at least 3 biological replicates across all the cell lines tested.

[2] = system: Ba/F3-Parental; assay: MTS viability assay, Ba/F3 parental cells; format: cell-based; conditions: Mus musculus, BaF3, 72 h, top concentration 10 uM, mean of at least 3 biological replicates
Experimental: as §2, §3

[3] = molecular target: T1, KIT exon11 deletion (557-558) and secondary mutation V654A (Homo sapiens, UniProt P10721, DEL557-558/V654A); assay: MTS viability assay, Ba/F3 expressing KIT exon11 deletion (557-558) and V654A; format: cell-based; conditions: 72 h, KIT exon11 deletion (557-558) plus secondary mutation, mean of at least 3 biological replicates
T1 construct: expressed in transfected cells; host or cells: Ba/F3 cells infected with lentivirus (pLVX-IRES Puro vector)
T1 sequence (P10721 with tags, fused parts or gaps DEL557-558/V654A): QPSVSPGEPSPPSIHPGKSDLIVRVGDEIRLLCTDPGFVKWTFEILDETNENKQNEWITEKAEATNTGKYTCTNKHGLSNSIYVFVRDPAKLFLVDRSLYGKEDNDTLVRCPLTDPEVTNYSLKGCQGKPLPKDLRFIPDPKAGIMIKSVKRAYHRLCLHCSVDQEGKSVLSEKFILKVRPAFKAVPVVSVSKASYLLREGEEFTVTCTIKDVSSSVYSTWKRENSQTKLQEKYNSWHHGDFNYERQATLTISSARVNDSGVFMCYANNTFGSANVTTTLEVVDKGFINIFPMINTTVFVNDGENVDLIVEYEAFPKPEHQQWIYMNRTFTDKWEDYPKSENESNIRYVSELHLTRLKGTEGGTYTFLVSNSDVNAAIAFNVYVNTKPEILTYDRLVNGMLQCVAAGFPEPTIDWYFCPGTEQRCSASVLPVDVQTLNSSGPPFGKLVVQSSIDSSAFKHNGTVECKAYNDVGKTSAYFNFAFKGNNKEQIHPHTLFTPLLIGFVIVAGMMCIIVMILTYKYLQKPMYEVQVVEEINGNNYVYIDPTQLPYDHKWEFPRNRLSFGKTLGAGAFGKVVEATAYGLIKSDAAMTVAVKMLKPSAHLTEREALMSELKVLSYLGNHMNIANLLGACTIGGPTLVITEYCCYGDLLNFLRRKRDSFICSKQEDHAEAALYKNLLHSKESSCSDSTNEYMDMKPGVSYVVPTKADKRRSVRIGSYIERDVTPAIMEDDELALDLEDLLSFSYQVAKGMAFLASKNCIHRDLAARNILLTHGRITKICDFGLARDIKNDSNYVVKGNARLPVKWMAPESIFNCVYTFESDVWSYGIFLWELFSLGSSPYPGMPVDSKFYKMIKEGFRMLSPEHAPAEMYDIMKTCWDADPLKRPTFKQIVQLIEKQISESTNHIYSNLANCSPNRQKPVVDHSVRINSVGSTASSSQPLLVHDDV
Experimental: (§4) 3 different KIT cDNA encoding for the exon11 deletion (557-558) and a secondary mutation (V654A, T670I, D816H) from Genescript were cloned into pLVX-IRES Puro vector(Clontech). Lentiviral particles were generated using Trans-lentiviral ORF packaging kit (TLP 5918) from Thermo Scientific (Waltham, Mass.) in HEK293-T/17 cells, according to the manufacturer's instructions.
as §1, §2, §3

[4] = molecular target: T2, KIT exon11 deletion (557-558) and secondary mutation D816H (Homo sapiens, UniProt P10721, D816H/DEL557-558); assay: MTS viability assay, Ba/F3 expressing KIT exon11 deletion (557-558) and D816H; format: cell-based; conditions: 72 h, KIT exon11 deletion (557-558) plus secondary mutation, mean of at least 3 biological replicates
T2 construct: expressed in transfected cells; host or cells: Ba/F3 cells infected with lentivirus (pLVX-IRES Puro vector)
T2 sequence (P10721 with tags, fused parts or gaps DEL557-558/D816H): as the sequence (P10721 with tags, fused parts or gaps DEL557-558/V654A) above, with A627V, D789H counted along it
Experimental: as §4, §1, §2, §3

[5] = molecular target: T3, KIT exon11 deletion (557-558) and secondary mutation T670I (Homo sapiens, UniProt P10721, DEL557-558/T670I); assay: MTS viability assay, Ba/F3 expressing KIT exon11 deletion (557-558) and T670I; format: cell-based; conditions: 72 h, KIT exon11 deletion (557-558) plus secondary mutation, mean of at least 3 biological replicates
T3 construct: expressed in transfected cells; host or cells: Ba/F3 cells infected with lentivirus (pLVX-IRES Puro vector)
T3 sequence (P10721 with tags, fused parts or gaps DEL557-558/T670I): as the sequence (P10721 with tags, fused parts or gaps DEL557-558/V654A) above, with A627V, T643I counted along it
Experimental: as §4, §1, §2, §3

[6] = system: GIST; conditions: PhIII study, patients with GIST after relapse to imatinib and sunitinib; cited from earlier work
[7] = system: GIST; conditions: within 2 years; cited from earlier work

SMILES | GI50 [1] [µM] | GI50 [2] [µM] | Ba/F3-V654A GI50 [3] [µM] | Ba/F3-D816H GI50 [4] [µM] | Ba/F3-T6701 GI50 [5] [µM] | median PFS [6] [months] | patients developed resistance [7] [%]
COc1cc2c(Oc3ccc(NC(=O)Cn4cc(C(C)C)nn4)cc3)ncnc2cc1O[C@@H]1CCOC1 (single isomer, unassigned) [Example 12] | 0.84 | ≥ 10 | 0.011 | 0.022 | 0.023 |  | 
COc1cc2c(Oc3ccc(NC(=O)Cn4cc(C(C)C)nn4)cc3)ncnc2cc1O[C@H]1CCOC1 (single isomer, unassigned) [Example 13] | 0.577 | ≥ 10 | 0.013 | 0.024 | 0.03 |  | 
COc1cc2ncnc(Oc3ccc(NC(=O)Cn4cc(C5CC5)nn4)cc3)c2cc1OC [Example 2, 2-(4-Cyclopropyl-1H-1,2,3-triazol-1-yl)-N-(4-((6,7-dimethoxyquinazolin-4-yl)oxy)phenyl)acetamide] | 1.93 | ≥ 10 | 0.004 | 0.095 | 0.068 |  | 
COc1cc(Oc2ncnc3cc(OC)c(OC)cc23)ccc1NC(=O)Cn1cc(C(C)C)nn1 [Example 3, N-(4-((6,7-Dimethoxyquinazolin-4-yl)oxy)-2-methoxyphenyl)-2-(4-isopropyl-1H-1,2,3-triazol-1-yl)acetamide] | 1.08 | ≥ 10 | 0.013 | 0.041 | 0.023 |  | 
COc1cc2ncnc(Oc3ccc(NC(=O)Cn4cc(C(C)C)nn4)cc3F)c2cc1OC [Example 4, N-(4-((6,7-Dimethoxyquinazolin-4-yl)oxy)-3-fluorophenyl)-2-(4-isopropyl-1H-1,2,3-triazol-1-yl)acetamide] | 0.142 | ≥ 10 | 0.001 | 0.015 | 0.008 |  | 
COc1cc2c(Oc3ccc(NC(=O)Cn4cc(C(C)C)nn4)cc3)ncnc2cc1OCCN1CCCC1 [Example 6, 2-(4-Isopropyl-1H-1,2,3-triazol-1-yl)-N-(4-((6-methoxy-7-(2-(pyrrolidin-1-yl)ethoxy)quinazolin-4-yl)oxy)phenyl)acetamide] | 2.77 | ≥ 10 | 0.022 | 0.055 | 0.072 |  | 
COc1cc2c(Oc3ccc(NC(=O)Cn4cc(C(C)C)nn4)cc3)ncnc2cc1OC1CCOCC1 [Example 9, 2-(4-Isopropyl-1H-1,2,3-triazol-1-yl)-N-(4-((6-methoxy-7-((tetrahydro-2H-pyran-4-yl)oxy)quinazolin-4-yl)oxy)phenyl)acetamide] | 2.11 | ≥ 10 | 0.017 | 0.046 | 0.077 |  | 
COc1cc2c(Oc3ccc(NC(=O)Cn4cc(C(C)C)nn4)cc3)ncnc2cc1OC1COC1 [Example 10, 2-(4-Isopropyl-1H-1,2,3-triazol-1-yl)-N-(4-((6-methoxy-7-(oxetan-3-yloxy)quinazolin-4-yl)oxy)phenyl)acetamide] | 1.84 | ≥ 10 | 0.018 | 0.051 | 0.074 |  | 
CNC(=O)c1cc(Oc2ccc(NC(=O)Nc3ccc(Cl)c(C(F)(F)F)c3)c(F)c2)ccn1 [Regorafenib] |  |  |  |  |  | 4.8 | 
Cc1ccc(NC(=O)c2ccc(CN3CCN(C)CC3)cc2)cc1Nc1nccc(-c2cccnc2)n1 [imatinib, Imatinib] |  |  |  |  |  |  | 50

The next lines start with results.

GI50 [1] [µM] | SMILES | GI50 [2] [µM] | Ba/F3-V654A GI50 [3] [µM] | Ba/F3-D816H GI50 [4] [µM] | Ba/F3-T6701 GI50 [5] [µM] | median PFS [6] [months] | patients developed resistance [7] [%]
0.6 | COc1cc2ncnc(Oc3ccc(NC(=O)Cn4cc(C(C)C)nn4)cc3)c2cc1OC [Example 1, N-(4-((6,7-Dimethoxyquinazolin-4-yl)oxy)phenyl)-2-(4-isopropyl-1H-1,2,3-triazol-1-yl)acetamide] | ≥ 10 | 0.003 | 0.019 | 0.017 |  | 
0.289 | COCCOc1cc2ncnc(Oc3ccc(NC(=O)Cn4cc(C(C)C)nn4)cc3)c2cc1OC [Example 5, 2-(4-Isopropyl-1H-1,2,3-triazol-1-yl)-N-(4-((6-methoxy-7-(2-methoxyethoxy)quinazolin-4-yl)oxy)phenyl)acetamide] | ≥ 10 | 0.008 | 0.015 | 0.011 |  | 
2.52 | COc1cc2c(Oc3ccc(NC(=O)Cn4cc(C(C)C)nn4)cc3)ncnc2cc1OCCN(C)C [Example 7, N-(4-((7-(2-(Dimethylamino)ethoxy)-6-methoxyquinazolin-4-yl)oxy)phenyl)-2-(4-isopropyl-1H-1,2,3-triazol-1-yl)acetamide] | ≥ 10 | 0.015 | 0.041 | 0.057 |  | 
1.16 | COc1cc2c(Oc3ccc(NC(=O)Cn4cc(C(C)C)nn4)cc3)ncnc2cc1OCCO [Example 8, N-(4-((7-(2-Hydroxyethoxy)-6-methoxyquinazolin-4-yl)oxy)phenyl)-2-(4-isopropyl-1H-1,2,3-triazol-1-yl)acetamide] | ≥ 10 | 0.025 | 0.075 | 0.055 |  | 
0.903 | COc1cc2c(Oc3ccc(NC(=O)Cn4cc(C(C)C)nn4)cc3)ncnc2cc1OC(C)C [Example 11, N-[4-(7-Isopropoxy-6-methoxy-quinazolin-4-yl)oxyphenyl]-2-(4-isopropyl-1H-1,2,3-triazol-1-yl)acetamide] | ≥ 10 | 0.016 | 0.028 | 0.057 |  | 

From patent publication US11053223B2, “Phenoxyquinazoline compounds and their use in treating cancer” (AstraZeneca AB, priority 2017, dated 2021)
